In patent publication US20240066087A1, “SUTHERLANDIA EXTRACT AND THE USE THEREOF IN THE MANUFACTURE OF A MEDICAMENT” (ACUPHARM INTERNATIONAL PROPRIETARY LIMITED, priority 2020, published 2024):

tested on: cultured tissue from needle biopsy, Breast DCIS papillary neoplasm; assay: dose response study with cumulative cell death on cultured patient biopsy tissue (patient 19055); format: cell-based, human; conditions: in vitro cultured biopsy sample, patient 19055, Breast DCIS papillary neoplasm
Procedure: Comparative studies were performed using Sutherlandia leaf extract in water (referred to as ACPJL35), Sutherlandia leaf extract in 50% ethanol and water solution (referred to as ACPJL28), and Sutherlandia leaf extract in 90% ethanol and water solution (referred to as ACPJL07). These extracts were compared to a number of known botanical isolates with anti-cancer activity, as well as a number of known anti-cancer drugs, using a dose response design with cumulative cell death as the dependent variable. These studies were conducted on in vitro samples of cultured tissue, taken as biopsy samples from patients as part of a standard culture and testing process done in order to optimise treatment.
Patient from whom sample was obtained was a person presenting with a diagnosis of Breast DCIS papillary neoplasm. The sample was obtained via needle biopsy, before being cultured.

Structure (SMILES) | efficacy assessment from dose response (dose-CR curve), cumulative cell death as dependent variable
COc1cc2c(Oc3ccc4[nH]c(C)cc4c3F)ncnc2cc1OCCCN1CCCC1 [Cediranib] | having potential benefit
Nc1nc(Cl)nc2c1ncn2[C@@H]1O[C@H](CO)[C@@H](O)[C@@H]1F [Clofarabine] | having potential benefit
CC(=O)O[C@@]12CO[C@@H]1C[C@H](O)[C@@]1(C)C(=O)[C@H](O)C3=C(C)[C@@H](OC(=O)[C@H](O)[C@@H](NC(=O)OC(C)(C)C)c4ccccc4)C[C@@](O)([C@@H](OC(=O)c4ccccc4)[C@H]21)C3(C)C [Docetaxel] | having potential benefit
COc1cc2ncnc(Nc3ccc(F)c(Cl)c3)c2cc1OCCCN1CCOCC1 [Gefitinib] | having potential benefit
O=C1c2c(O)ccc(O)c2C(=O)c2c(NCCNCCO)ccc(NCCNCCO)c21 [Mitoxantrone] | having potential benefit
COC(=O)c1ccc2c(c1)NC(=O)/C2=C(\Nc1ccc(N(C)C(=O)CN2CCN(C)CC2)cc1)c1ccccc1 [Nintedanib] | good efficacy and a positive dose response curve
CC(=O)O[C@H]1C(=O)[C@@]2(C)[C@H]([C@H](OC(=O)c3ccccc3)[C@]3(O)C[C@H](OC(=O)[C@H](O)[C@@H](NC(=O)c4ccccc4)c4ccccc4)C(C)=C1C3(C)C)[C@]1(OC(C)=O)CO[C@@H]1C[C@@H]2O [Paclitaxel] | having potential benefit
CC[C@]1(O)C[C@H]2CN(CCc3c([nH]c4ccccc34)[C@@](C(=O)OC)(c3cc4c(cc3OC)N(C=O)[C@H]3[C@@](O)(C(=O)OC)[C@H](OC(C)=O)[C@]5(CC)C=CCN6CC[C@]43[C@@H]65)C2)C1 [Vincristine] | having potential benefit
CCC1=C[C@@H]2CN(C1)Cc1c([nH]c3ccccc13)[C@@](C(=O)OC)(c1cc3c(cc1OC)N(C)[C@H]1[C@@](O)(C(=O)OC)[C@H](OC(C)=O)[C@]4(CC)C=CCN5CC[C@]31[C@@H]54)C2 [Vinorelbine] | having potential benefit
O=C(CCCCCCC(=O)Nc1ccccc1)NO [Vorinostat] | having potential benefit
